Like-named read-outs stand apart in the source and are kept apart here.
Legend:
[1] = test system: control pseudovirus VSV-G; assay: microbe, parasite or virus in culture; type: cell-based; conditions: Pseudovirus, U87/CD4/CCR5
[2] = Cytotoxicity; type: cell-based; conditions: human, U87-CD4-CCR5 cells
[3] = molecular target: HIV-1 Reverse Transcriptase (RT) (Human immunodeficiency virus type 1 group M subtype B, UniProt P04585); assay: biochemical; type: biochemical
[4] = test system: HIV-1 Env pseudovirus Q259ENV.W6; assay: Single-cycle assay TZM-bl, Env pseudovirus panel; conditions: TZM-bl
[5] = test system: HIV-1 Env pseudovirus QB726.70M.ENV.C4; assay: Single-cycle assay TZM-bl, Env pseudovirus panel; conditions: TZM-bl
[6] = test system: HIV-1 Env pseudovirus QF495.23M.ENV.A3; assay: Single-cycle assay TZM-bl, Env pseudovirus panel; conditions: TZM-bl
[7] = test system: HIV-1 Env pseudovirus BG505-T332N; assay: Single-cycle assay TZM-bl, Env pseudovirus panel; conditions: TZM-bl
[8] = test system: HIV-1 Env pseudovirus QA790.204I.ENV.A4; assay: Single-cycle assay TZM-bl, Env pseudovirus panel; conditions: TZM-bl
[9] = test system: HIV-1 Env pseudovirus QA790.204I.ENV.C8; assay: Single-cycle assay TZM-bl, Env pseudovirus panel; conditions: TZM-bl
[10] = test system: HIV-1 Env pseudovirus QA790.204I.ENV.E2; assay: Single-cycle assay TZM-bl, Env pseudovirus panel; conditions: TZM-bl
[11] = test system: HIV-1 Env pseudovirus CRF02_AG, clone 251; assay: Single-cycle assay TZM-bl, Env pseudovirus panel; conditions: TZM-bl
[12] = test system: HIV-1 Env pseudovirus CRF02_AG, clone 257; assay: Single-cycle assay TZM-bl, Env pseudovirus panel; conditions: TZM-bl
[13] = test system: HIV-1 Env pseudovirus CRF02_AG, clone 33; assay: Single-cycle assay TZM-bl, Env pseudovirus panel; conditions: TZM-bl
[14] = test system: HIV-1 Env pseudovirus PVO, clone 4; assay: Single-cycle assay TZM-bl, Env pseudovirus panel; conditions: TZM-bl
[15] = test system: HIV-1 Env pseudovirus REJO4541, clone 67; assay: Single-cycle assay TZM-bl, Env pseudovirus panel
[16] = test system: HIV-1 Env pseudovirus THRO4156, clone 18; assay: Single-cycle assay TZM-bl, Env pseudovirus panel
[17] = test system: HIV-1 Env pseudovirus 9021_14.B2.4571; assay: Single-cycle assay TZM-bl, Env pseudovirus panel; conditions: TZM-bl
[18] = test system: HIV-1 Env pseudovirus WEAUd15.410.5017; assay: Single-cycle assay TZM-bl, Env pseudovirus panel; conditions: TZM-bl
[19] = test system: HIV-1 Env pseudovirus Du422, clone 1; assay: Single-cycle assay TZM-bl, Env pseudovirus panel; conditions: TZM-bl
[20] = test system: HIV-1 Env pseudovirus ZM109F.PB4; assay: Single-cycle assay TZM-bl, Env pseudovirus panel; conditions: TZM-bl
[21] = test system: HIV-1 Env pseudovirus CAP210.2.00.E8; assay: Single-cycle assay TZM-bl, Env pseudovirus panel; conditions: TZM-bl
[22] = test system: HIV-1 Env pseudovirus HIV-00836-2, clone 5; assay: Single-cycle assay TZM-bl, Env pseudovirus panel; conditions: TZM-bl
[23] = test system: HIV-1 Env pseudovirus HIV-16936-2, clone 21; assay: Single-cycle assay TZM-bl, Env pseudovirus panel; conditions: TZM-bl
[24] = test system: HIV-1 Env pseudovirus HIV-25711-2, clone 4; assay: Single-cycle assay TZM-bl, Env pseudovirus panel; conditions: TZM-bl
[25] = test system: HIV-1 Env pseudovirus HIV-25925-2, clone 22; assay: Single-cycle assay TZM-bl, Env pseudovirus panel
[26] = test system: HIV-1 Env pseudovirus QB099.391M.ENV.C8; assay: Single-cycle assay TZM-bl, Env pseudovirus panel; conditions: TZM-bl
[27] = test system: HIV-1 Env pseudovirus QA013.70I.ENV.H1; assay: Single-cycle assay TZM-bl, Env pseudovirus panel; conditions: TZM-bl
[28] = test system: HIV-1 Env pseudovirus QD435.100M.ENV.B5; assay: Single-cycle assay TZM-bl, Env pseudovirus panel; conditions: TZM-bl
[29] = test system: HIV-1 Env pseudovirus BG505.W6M.ENV.C2; assay: Single-cycle assay, Paired Infant and Maternal Env clones
[30] = test system: HIV-1 Env pseudovirus B1206.W6P.ENV.A1A; assay: as above
[31] = test system: HIV-1 Env pseudovirus BL274.W6M.ENV.A3; assay: as above
[32] = test system: HIV-1 Env pseudovirus BK184.W6M.ENV.D2; assay: as above
[33] = test system: HIV-1 Env pseudovirus MK184.W0M.ENV.E4; assay: as above
[34] = test system: HIV-1 panel of Paired Infant (B) and Maternal (M) Env Molecular Clones; assay: Single-cycle assay, means over Paired Infant and Maternal Env clones
[35] = Human immunodeficiency virus 1, read-out: IC50 Mean ± SEM: Infant (B)
[36] = Human immunodeficiency virus 1, read-out: IC50 Mean ± SEM: Mother (M)
[37] = Human immunodeficiency virus 1, read-out: IC50 Mean ± SEM: Overall (n=10)

SMILES	IC50 [1] [µM]	CC50 at 3 days [2] [µM]	IC50 [3] [µM]	IC50 [4] [µM]	IC50 [5] [µM]	IC50 [6] [µM]	IC50 [7] [µM]	IC50 [8] [µM]	IC50 [9] [µM]	IC50 [10] [µM]	IC50 [11] [µM]	IC50 [12] [µM]	IC50 [13] [µM]	IC50 [14] [µM]	IC50 [15] [µM]	IC50 [16] [µM]	IC50 [17] [µM]	IC50 [18] [µM]	IC50 [19] [µM]	IC50 [20] [µM]	other results
NCC(NC(=O)c1ccc(-c2ccc3c(c2)OCO3)[nH]1)c1ncc(CO)s1 (stereo not drawn) [NBD-14123, N-(2-amino-1-(5-(hydroxymethyl)thiazol-2-yl)ethyl)-5-(benzo[d][1,3]dioxol-5-yl)-1H-pyrrole-2-carboxamide]	45.3 ± 2.3	> 100	39.5 ± 2.8	2.3 ± 0.2	3.5 ± 0.1	3.3 ± 0.2	4 ± 0.5	1.6 ± 0.1	1.4 ± 0.2	2.5 ± 0.3	3.1 ± 0.2	4.4 ± 0.1	3.5 ± 0.4	1.9 ± 0.2	3.4 ± 0.2	3.1 ± 0.1	2.1 ± 0.6	3.4 ± 0.2	2.5 ± 0.3	3 ± 0.2	IC50 [21]: 5.3 ± 0.2 µM; IC50 [22]: 3.2 ± 0.2 µM; IC50 [23]: 4.4 ± 0.5 µM; IC50 [24]: 5.7 ± 0.7 µM; IC50 [25]: 5.6 ± 0.3 µM; IC50 [26]: 4.4 ± 0.6 µM; IC50 [27]: 2.5 ± 0.4 µM; IC50 [28]: 3.5 ± 0.3 µM; IC50 [29]: 4.4 ± 0.1 µM; IC50 [30]: 4.9 ± 0.3 µM; IC50 [31]: 5.7 ± 0.3 µM; IC50 [32]: 3.6 ± 0.1 µM; IC50 [33]: 3.7 ± 0.1 µM; IC50 [34, 35]: 4.2e-06 ± 6e-07 M; IC50 [34, 36]: 4.1e-06 ± 4e-07 M; IC50 [34, 37]: 4.2e-06 ± 3e-07 M
Cc1nc(C(CN)NC(=O)c2ccc(-c3ccc4c(c3)OCO4)[nH]2)sc1CO (stereo not drawn) [NBD-14110, N-(2-amino-1-(5-(hydroxymethyl)-4-methylthiazol-2-yl)ethyl)-5-(benzo[d][1,3]dioxol-5-yl)-1H-pyrrole-2-carboxamide]	51.6 ± 4.4	> 100	30.6 ± 2.7	1.9 ± 0.2	3.7 ± 0.3	3 ± 0.1	4.2 ± 0.5	2.1 ± 0.6	2.4 ± 0.2	1.5 ± 0.2	2.5 ± 0.1	5.4 ± 0.2	5 ± 0.3	1.4 ± 0.3	3.4 ± 0.3	2.7 ± 0.2	4.5 ± 0.5	1.6 ± 0.1	1.8 ± 0.2	4.9 ± 0.1	IC50 [21]: 5.5 ± 0.4 µM; IC50 [22]: 1.7 ± 0.1 µM; IC50 [23]: 3.5 ± 0.1 µM; IC50 [24]: 4.4 ± 0.4 µM; IC50 [25]: 4.7 ± 0.1 µM; IC50 [26]: 4.3 ± 0.5 µM; IC50 [27]: 2.9 ± 0.3 µM; IC50 [28]: 2.4 ± 0.2 µM; IC50 [29]: 4.8 ± 0.3 µM; IC50 [30]: 5.6 ± 0.2 µM; IC50 [31]: 7.2 ± 0.1 µM; IC50 [32]: 3.7 ± 0.6 µM; IC50 [33]: 3.4 ± 0.2 µM; IC50 [34, 35]: 4.8e-06 ± 8e-07 M; IC50 [34, 36]: 5.2e-06 ± 6e-07 M; IC50 [34, 37]: 5e-06 ± 5e-07 M

Source: publication PMC6446940 (ChemMedChem, 2018)
